Experimental data: ChEMBL document CHEMBL3864190, “Discovery of Pyrazolopyrimidine Derivatives as Novel Dual Inhibitors of BTK and PI3Kδ” (ACS Med Chem Lett, 2016)

Tests used:
[1] = biological target: T1, Phosphatidylinositol 4,5-bisphosphate 3-kinase catalytic subunit delta isoform (Homo sapiens) (UniProt O00329); test: Inhibition of PI3Kdelta (unknown origin) using biotinylated PIP2 as substrate at 100 nM in presence of streptavidin-APC by FRET assay
T1 sequence (whole entry): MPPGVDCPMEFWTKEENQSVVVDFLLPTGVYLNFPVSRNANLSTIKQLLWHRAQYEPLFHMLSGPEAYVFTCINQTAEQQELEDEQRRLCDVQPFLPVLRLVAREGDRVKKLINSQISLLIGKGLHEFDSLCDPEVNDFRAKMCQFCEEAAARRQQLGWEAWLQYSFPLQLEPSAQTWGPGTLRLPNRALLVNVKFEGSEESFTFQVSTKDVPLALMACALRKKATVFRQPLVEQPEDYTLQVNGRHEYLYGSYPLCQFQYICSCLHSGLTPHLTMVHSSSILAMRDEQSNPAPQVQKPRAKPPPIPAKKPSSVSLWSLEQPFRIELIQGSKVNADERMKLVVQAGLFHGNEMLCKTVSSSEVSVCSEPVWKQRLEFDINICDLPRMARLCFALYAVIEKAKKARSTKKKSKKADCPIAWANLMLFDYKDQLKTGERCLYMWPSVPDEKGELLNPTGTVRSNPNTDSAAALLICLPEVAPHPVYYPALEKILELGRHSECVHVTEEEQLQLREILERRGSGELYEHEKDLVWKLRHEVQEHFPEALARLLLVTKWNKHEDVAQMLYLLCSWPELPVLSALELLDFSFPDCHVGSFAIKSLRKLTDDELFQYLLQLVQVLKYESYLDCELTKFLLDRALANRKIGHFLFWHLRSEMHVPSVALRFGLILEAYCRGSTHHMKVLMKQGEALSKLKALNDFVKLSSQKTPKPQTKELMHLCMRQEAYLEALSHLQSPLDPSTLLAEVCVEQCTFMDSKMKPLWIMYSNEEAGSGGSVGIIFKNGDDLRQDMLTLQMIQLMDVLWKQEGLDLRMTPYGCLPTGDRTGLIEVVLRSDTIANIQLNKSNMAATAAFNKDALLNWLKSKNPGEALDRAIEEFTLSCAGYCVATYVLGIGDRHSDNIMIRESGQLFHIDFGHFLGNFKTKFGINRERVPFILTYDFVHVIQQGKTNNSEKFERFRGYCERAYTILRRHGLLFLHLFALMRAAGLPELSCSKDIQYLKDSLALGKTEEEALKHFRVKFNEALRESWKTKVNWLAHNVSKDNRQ

[2] = biological target: T2, Tyrosine-protein kinase BTK (Homo sapiens, UniProt Q06187); settings: at 100 nM
[3] = biological target: T3, Phosphatidylinositol 4,5-bisphosphate 3-kinase catalytic subunit delta isoform (Homo sapiens, UniProt O00329); test: Inhibition of PI3Kdelta (unknown origin) using biotinylated PIP2 as substrate in presence of streptavidin-APC by FRET assay
T3 sequence (O00329 whole entry): T1 sequence (whole entry)

[4] = Clearance in mouse plasma at 5 mg/kg, iv or 15 mg/kg, po by HPLC/MS analysis; format: ADME, organism-based
[5] = Apparent volume of distribution in mouse plasma at 5 mg/kg, iv or 15 mg/kg, po by HPLC/MS analysis; format: ADME, organism-based; settings: read-out: Vz
[6] = AUC in mouse plasma at 15 mg/kg, po by HPLC/MS analysis; format: ADME, organism-based
[7] = Half life in mouse plasma at 15 mg/kg, po by HPLC/MS analysis; format: ADME, organism-based
[8] = Oral bioavailability in mouse plasma at 15 mg/kg by HPLC/MS analysis; format: ADME, organism-based
[9] = Drug metabolism in mouse liver microsomes assessed as UGT-mediated compound glucuronidation by measuring parent compound remaining at 5 uM after 30 mins in presence of UDPGA by LC-MS/MS analysis; format: ADME; settings: for remaining at 0.5 h, 5 µM: liver microsomes, read-out: Stability
[10] = Drug metabolism in mouse liver microsomes assessed as compound oxidation by measuring parent compound remaining at 1 uM after 30 mins in presence of NADPH by LC-MS/MS analysis; format: ADME; settings: for remaining at 0.5 h, 1 µM: liver microsomes, read-out: Stability
[11] = Drug metabolism in human liver microsomes assessed as compound oxidation by measuring parent compound remaining at 1 uM after 30 mins in presence of NADPH by LC-MS/MS analysis; format: ADME; settings: for remaining at 0.5 h, 1 µM: liver microsomes, read-out: Stability
[12] = Drug metabolism in human liver microsomes assessed as UGT-mediated compound glucuronidation by measuring parent compound remaining at 5 uM after 30 mins in presence of UDPGA by LC-MS/MS analysis; format: ADME; settings: read-out: Stability
[13] = biological target: T2, Tyrosine-protein kinase BTK
[14] = Drug metabolism in rat liver microsomes assessed as compound oxidation by measuring parent compound remaining at 1 uM after 30 mins in presence of NADPH by LC-MS/MS analysis; format: ADME; settings: microsomes, 0.5 h, 1 µM
[15] = Drug metabolism in dog liver microsomes assessed as compound oxidation by measuring parent compound remaining at 1 uM after 30 mins in presence of NADPH by LC-MS/MS analysis; format: ADME, Canis lupus familiaris; settings: 0.5 h
[16] = Efflux ratio of apparent permeability from basolateral to apical side over apical to basolateral side in human Caco2 cells; format: ADME, cell-based; settings: caco-2
[17] = Protein binding in mouse plasma; format: ADME, cell-free
[18] = Clearance in mouse plasma at 2 mg/kg, iv or 10 mg/kg, po by HPLC/MS analysis; format: ADME, organism-based; settings: in vivo
[19] = Apparent volume of distribution in mouse plasma at 2 mg/kg, iv or 10 mg/kg, po by HPLC/MS analysis; format: ADME, organism-based; settings: in vivo
[20] = AUC in mouse plasma at 10 mg/kg, po by HPLC/MS analysis; format: ADME, organism-based; settings: in vivo
[21] = Half life in mouse plasma at 10 mg/kg, po by HPLC/MS analysis; format: ADME, organism-based; settings: in vivo
[22] = Oral bioavailability in mouse plasma at 10 mg/kg by HPLC/MS analysis; format: ADME, organism-based; settings: in vivo

T2 sequence (Q06187 whole entry, canonical isoform): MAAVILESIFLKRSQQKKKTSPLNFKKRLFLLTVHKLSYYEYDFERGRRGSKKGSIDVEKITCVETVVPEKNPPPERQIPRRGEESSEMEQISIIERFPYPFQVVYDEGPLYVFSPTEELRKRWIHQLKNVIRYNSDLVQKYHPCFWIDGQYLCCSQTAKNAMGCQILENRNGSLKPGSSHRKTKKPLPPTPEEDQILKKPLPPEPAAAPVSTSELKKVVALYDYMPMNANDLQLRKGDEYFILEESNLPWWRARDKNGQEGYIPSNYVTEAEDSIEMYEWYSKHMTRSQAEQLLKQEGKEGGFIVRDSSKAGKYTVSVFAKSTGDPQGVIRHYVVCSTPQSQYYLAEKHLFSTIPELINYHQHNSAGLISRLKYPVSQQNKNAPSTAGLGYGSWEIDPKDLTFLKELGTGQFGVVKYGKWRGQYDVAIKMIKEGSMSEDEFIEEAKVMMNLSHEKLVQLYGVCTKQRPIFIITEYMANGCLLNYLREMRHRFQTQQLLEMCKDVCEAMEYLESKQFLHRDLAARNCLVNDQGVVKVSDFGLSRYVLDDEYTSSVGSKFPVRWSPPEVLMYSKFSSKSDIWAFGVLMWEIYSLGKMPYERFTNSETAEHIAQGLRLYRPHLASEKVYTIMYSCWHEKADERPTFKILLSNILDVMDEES

inhibition [1] | inhibition [2] | IC50 [3] | clearance [4] | Vd [5] | AUC [6] | half-life [7] | bioavailability [8] | remaining at 0.5 h, 5 µM [9] | SMILES | also measured
52% | 34% |  |  |  |  |  |  |  | Nc1ncnc2c1c(-c1cc(F)c3c(c1)NCCO3)nn2C1CCc2ccccc2C1 (racemic) | 
 |  | 4 nM | 156 mL/min/kg | 11.5 L/kg | 0.033 µM·h | 36 min | 0.8% |  | Nc1ncnc2c1c(-c1cc(O)cc(Cl)c1)nn2C1Cc2ccccc2C1 | 
41% | 66% |  |  |  |  |  |  |  | Nc1ncnc2c1c(-c1cccc(O)c1)nn2C1Cc2ccccc2C1 | 
21% | 21% |  |  |  |  |  |  | 85% | Nc1ncnc2c1c(-c1cc(F)c(F)c(F)c1)nn2C1Cc2ccccc2C1 | 
 |  |  | 31.2 mL/min/kg | 6.56 L/kg | 2.37 µM·h | 378 min | 11% | 12% | COc1ccc(-c2nn(C3Cc4ccccc4C3)c3ncnc(N)c23)cc1O | remaining at 0.5 h, 1 µM [10]: 14%; remaining at 0.5 h, 1 µM [11]: 52%; remaining at 0.5 h, 5 µM [12]: 7%
 |  | 55 nM |  |  |  |  |  |  | Nc1ccc2c(c1)CC(n1nc(-c3cc(F)c4c(c3)NCCO4)c3c(N)ncnc31)CC2 (single isomer, unassigned; (+)) | IC50 [13]: 176 nM
8.2% | 79% |  |  |  |  |  |  | 92% | Nc1cc(-c2nn(C3Cc4ccccc4C3)c3ncnc(N)c23)ccc1F | 
 |  | 8 nM | 85 mL/min/kg | 6.01 L/kg | 0.177 µM·h | 186 min | 2.2% | < 1% | Nc1ncnc2c1c(-c1cc(O)cc(F)c1)nn2C1Cc2ccccc2C1 | remaining at 0.5 h, 1 µM [10]: 25%; remaining at 0.5 h, 1 µM [11]: 67%; remaining at 0.5 h, 5 µM [12]: 1.3%
 |  |  |  |  |  |  |  | 90% | Nc1ncnc2c1c(-c1ccc3[nH]cnc3c1)nn2C1Cc2ccccc2C1 | 
26% | 6.6% |  |  |  |  |  |  |  | Nc1ncnc2c1c(-c1cc(F)c3c(c1)NCCO3)nn2C1Cc2cc(F)ccc2C1=O (racemic) | 
 |  | 16 nM |  |  |  |  |  |  | Nc1ccc2c(c1)CC(n1nc(-c3cc(F)c4c(c3)NCCO4)c3c(N)ncnc31)C2 (single isomer, unassigned; (-)) | Stability ([10]; microsomes, 0.5 h, 1 µM): 11%; Stability ([9]; microsomes, 0.5 h, 5 µM): 99%; Stability ([11]; microsomes, 0.5 h, 1 µM): 63%; Stability [14]: 46%; Stability [15]: 32%; Ratio [16]: 1.7; PPB [17]: 98%; CL [18]: 9.83 mL/min/kg; Vz [19]: 3.44 L/kg; AUC [20]: 15.2 µM·h; t1/2 [21]: 78 min; F [22]: 40%; IC50 [13]: 32 nM
 |  |  | 122 mL/min/kg | 5.45 L/kg | 0.211 µM·h | 48 min | 3.7% |  | Nc1ncnc2c1c(-c1ccc(F)c(O)c1)nn2C1Cc2ccccc2C1 | 
87% | 74% | 3 nM | 154 mL/min/kg | 12.1 L/kg | 0.073 µM·h | 57 min | 1.7% | 5.1 to 7.1% | Nc1ncnc2c1c(-c1cc(O)c(F)c(F)c1)nn2C1Cc2ccccc2C1 | remaining at 0.5 h, 1 µM [10]: 78%; remaining at 0.5 h, 1 µM [11]: 75%; remaining at 0.5 h, 5 µM [12]: 3.7%
